Reference: publication PMC9039622 (Frontiers in Pharmacology, 2022)

Experiments:
[1] = In vitro digestion of prodrugs by porcine pancreatin in simulated intestinal fluid (SIF); type: in vitro ADME; conditions: for MG intermediate detected in SIF: after 30 min incubation; for half-life at 1.96 µg/ml: pig, pH 6.5, SIF with porcine pancreatin, read-out: apparent half-life of MG intermediate in SIF
Experimental: Briefly, the lipase solution was prepared by dispersion of porcine pancreatin (10,000 IU/ml) in a lipolysis buffer (pH 6.5) containing tris-maleate (2 mM), CaCl2 (1.4 mM) and NaCl (150 mM), followed by centrifugation at 2,000 g for 15 min at 5°C to provide the lipase solution as the supernatant. To start the hydrolysis, 100 µl of the lipase solution was added to a mixture of 20 µl of prodrug solution (0.1 mg/ml dissolved in acetonitrile) and 900 µl of simulated intestinal micellar solution (3 mM of sodium taurodeoxycholate and 0.75 mM of phosphatidylcholine dispersed in lipolysis buffer). The solution was incubated at 37°C. Samples (20 µl) of the incubation solution were taken at 0, 5, 10, 15, 30, 60, 90, 120 and 180 min post incubation and added to 180 µl of acetonitrile to stop lipolysis. The mixture was vortexed and centrifuged at 4,500 g for 5 min to precipitate proteins prior to analysis. The supernatant was analysed by HPLC-MS/MS for the potential products (Figure 1) of prodrug hydrolysis as described in the Supplementary Material.
(§1) Absolute quantification of the hydrolysis products, i.e., MG derivatives and BUP-linker-COOH forms (“acid” forms) was not attempted due to lack of authentic standards. Instead, the profiles for these species were plotted based on the peak areas obtained from HPLC-MS. […] To illustrate changes to the BUP-linker-acid forms, the relative changes were plotted as the peak areas on the right-hand Y axis in Figures 3 and 5.

[2] = In vitro incubation of prodrugs with LPL supplemented rat plasma; type: in vitro ADME, Sprague Dawley rat; conditions: over 3 h
Experimental: […] is tethered to the luminal surface of vascular endothelial cells under physiological conditions ([Bensadoun 1991]). In the current in vitro studies, rat plasma was therefore supplemented with LPL to better reflect the in vivo situation. To start hydrolysis, 10 µl of LPL solution (10,000 IU/ml) was added to a mixture of 10 µl of prodrug solution (0.1 mg/ml dissolved in acetonitrile) and 500 µl of blank Sprague Dawley rat plasma. The solution was incubated at 37°C. Samples (20 µl) of the incubation solution were taken at 0, 5, 15, 30, 60, 90, 120 and 180 min post incubation and added to 180 µl of ACN to stop lipolysis. The mixture was vortexed and centrifuged at 4,500 g for 5 min to precipitate proteins prior to analysis.
as §1

[3] = set-up: method as in earlier work; conditions: ref Tauber, Schroder, Dusterberg and Matthes 1986b; Shackleford et al., 2003; cited from earlier work

| SMILES | MG intermediate detected in SIF [1] | half-life at 1.96 µg/ml [1] [min] | BUP-linker-acid form detected in plasma [2] | further results |
| --- | --- | --- | --- | --- |
| CO[C@]12CC[C@@]3(C[C@@H]1[C@](C)(O)C(C)(C)C)[C@H]1Cc4ccc(OC(=O)CCC(=O)OC(CO)CO)c5c4[C@@]3(CCN1CC1CC1)[C@H]2O5 [BUP-C4-MG] | only trace quantities | < 10 | no BUP-linker-acid forms were detected |  |
| CCCCCCCCCCC(=O)O[C@H]1CC[C@H]2[C@@H]3CCC4=CC(=O)CC[C@]4(C)[C@H]3CC[C@]12C [testosterone undecanoate] |  |  |  | oral bioavailability for TST [3]: ~5% |
| CO[C@]12CC[C@@]3(C[C@@H]1[C@](C)(O)C(C)(C)C)[C@H]1Cc4ccc(OC(=O)CC(C)(C)c5c(C)cc(C)cc5OC(=O)CCC(=O)OC(CO)CO)c5c4[C@@]3(CCN1CC1CC1)[C@H]2O5 [BUP-TML-C4-MG] |  |  | no BUP-linker-acid forms were detected | MG intermediate remaining in simulated GI fluids ([1]; after 2 h): more than half |
| CO[C@]12CC[C@@]3(C[C@@H]1[C@](C)(O)C(C)(C)C)[C@H]1Cc4ccc(OC(=O)CC(C)(C)c5c(C)cc(C)cc5OC(=O)CC(C)CC(=O)OC(CO)CO)c5c4[C@@]3(CCN1CC1CC1)[C@H]2O5 (stereo partly drawn) [BUP-TML-C5bMe-MG] |  |  | no BUP-linker-acid forms were detected | MG intermediate remaining in SIF ([1]; at the end of the 3 h incubation, relative peak area): more than 80% |
| CO[C@]12CC[C@@]3(C[C@@H]1[C@](C)(O)C(C)(C)C)[C@H]1Cc4ccc(OC(=O)CC(C)CC(=O)OC(CO)CO)c5c4[C@@]3(CCN1CC1CC1)[C@H]2O5 (stereo partly drawn) [BUP-C5bMe-MG] |  | > 60 | no BUP-linker-acid forms were detected |  |
| CO[C@]12CC[C@@]3(C[C@@H]1[C@](C)(O)C(C)(C)C)[C@H]1Cc4ccc(OC(=O)CCCCOC(=O)CCC(=O)OC(CO)CO)c5c4[C@@]3(CCN1CC1CC1)[C@H]2O5 [BUP-CE-C4-MG] | only trace quantities |  | transiently detected |  |
